Experimental data from paper PMC9506414, “Novel 2,6,9-Trisubstituted Purines as Potent CDK Inhibitors Alleviating Trastuzumab-Resistance of HER2-Positive Breast Cancers” (Pharmaceuticals, 2022).

Legend:
Test in all cases: Kinome-wide inhibition profiling
Type in all cases: biochemical
[1] = biological target: T1, ACK1 (Homo sapiens, UniProt Q07912)
T1 construct: purchased Reaction Biology Corp
Procedure: (§1) In vitro CDK12/cyclinK assays for all compounds and in vitro kinome-wide inhibition profiling of 30d at 10 μM were performed by a CRO company (Reaction Biology Corp., San Diego, CA, USA).

[2] = biological target: T2, ACVR1B (Homo sapiens, UniProt P36896)
T2 construct: purchased Reaction Biology Corp
Procedure: as §1

[3] = biological target: T3, ARAF (Homo sapiens, UniProt P10398)
T3 construct: purchased Reaction Biology Corp
Procedure: as §1

[4] = biological target: T4, CDK1/cyclinB (Homo sapiens, UniProt P06493)
T4 construct: purchased Reaction Biology Corp
Procedure: as §1

[5] = biological target: T5, CDK3/cyclinE (Homo sapiens, UniProt Q00526)
T5 construct: purchased Reaction Biology Corp
Procedure: as §1

[6] = biological target: T6, CDK6/cyclinD1 (Homo sapiens, UniProt Q00534)
T6 construct: purchased Reaction Biology Corp
Procedure: as §1

[7] = biological target: T7, CDK9/cyclinT1 (Homo sapiens, UniProt P50750)
T7 construct: purchased Reaction Biology Corp
Procedure: as §1

[8] = biological target: T8, CSNK1A1L (Homo sapiens, UniProt Q8N752)
T8 construct: purchased Reaction Biology Corp
Procedure: as §1

[9] = biological target: T9, ERK5 (Homo sapiens, UniProt Q13164)
T9 construct: purchased Reaction Biology Corp
Procedure: as §1

[10] = biological target: T10, ERN2 (Homo sapiens, UniProt Q76MJ5)
T10 construct: purchased Reaction Biology Corp
Procedure: as §1

[11] = biological target: T11, FGFR2 (Homo sapiens, UniProt P21802)
T11 construct: purchased Reaction Biology Corp
Procedure: as §1

[12] = biological target: T12, HIPK1 (Homo sapiens, UniProt Q86Z02)
T12 construct: purchased Reaction Biology Corp
Procedure: as §1

[13] = biological target: T13, IKK-alpha (Homo sapiens, UniProt O15111)
T13 construct: purchased Reaction Biology Corp
Procedure: as §1

[14] = biological target: T14, IKK-epsilon (Homo sapiens, UniProt Q14164)
T14 construct: purchased Reaction Biology Corp
Procedure: as §1

[15] = biological target: T15, KSR2 (Homo sapiens, UniProt Q6VAB6)
T15 construct: purchased Reaction Biology Corp
Procedure: as §1

[16] = biological target: T16, MAPKAPK2 (Homo sapiens, UniProt P49137)
T16 construct: purchased Reaction Biology Corp
Procedure: as §1

[17] = biological target: T17, MARK1 (Homo sapiens, UniProt Q9P0L2)
T17 construct: purchased Reaction Biology Corp
Procedure: as §1

[18] = biological target: T18, MEK3 (Homo sapiens, UniProt P46734)
T18 construct: purchased Reaction Biology Corp
Procedure: as §1

[19] = biological target: T19, MET (Homo sapiens, UniProt P08581)
T19 construct: purchased Reaction Biology Corp
Procedure: as §1

[20] = biological target: T20, MLK2 (Homo sapiens, UniProt Q02779)
T20 construct: purchased Reaction Biology Corp
Procedure: as §1

[21] = biological target: T21, MUSK (Homo sapiens, UniProt O15146)
T21 construct: purchased Reaction Biology Corp
Procedure: as §1

[22] = biological target: T22, MYLK2 (Homo sapiens, UniProt Q9H1R3)
T22 construct: purchased Reaction Biology Corp
Procedure: as §1

[23] = biological target: T23, OSR1 (Homo sapiens, UniProt O95747)
T23 construct: purchased Reaction Biology Corp
Procedure: as §1

[24] = biological target: T24, P38-alpha (Homo sapiens, UniProt Q16539)
T24 construct: purchased Reaction Biology Corp
Procedure: as §1

[25] = biological target: T25, P38-gamma (Homo sapiens, UniProt P53778)
T25 construct: purchased Reaction Biology Corp
Procedure: as §1

[26] = biological target: T26, PAK3 (Homo sapiens, UniProt O75914)
T26 construct: purchased Reaction Biology Corp
Procedure: as §1

[27] = biological target: T27, PFTK1 (Homo sapiens, UniProt O94921)
T27 construct: purchased Reaction Biology Corp
Procedure: as §1

[28] = biological target: T28, PIM3 (Homo sapiens, UniProt Q86V86)
T28 construct: purchased Reaction Biology Corp
Procedure: as §1

[29] = biological target: T29, PLK1 (Homo sapiens, UniProt P53350)
T29 construct: purchased Reaction Biology Corp
Procedure: as §1

[30] = biological target: T30, PYK2 (Homo sapiens, UniProt Q14289)
T30 construct: purchased Reaction Biology Corp
Procedure: as §1

[31] = biological target: T31, RIPK4 (Homo sapiens, UniProt P57078)
T31 construct: purchased Reaction Biology Corp
Procedure: as §1

[32] = biological target: T32, ROCK2 (Homo sapiens, UniProt O75116)
T32 construct: purchased Reaction Biology Corp
Procedure: as §1

[33] = biological target: T33, RPS6KA4(Kin.Dom.1-N-term) (Homo sapiens, UniProt O75676)
T33 construct: RPS6KA4(Kin.Dom.1-N-term); purchased Reaction Biology Corp
Procedure: as §1

[34] = biological target: T34, STK16 (Homo sapiens, UniProt O75716)
T34 construct: purchased Reaction Biology Corp
Procedure: as §1

[35] = biological target: T35, STK33 (Homo sapiens, UniProt Q9BYT3)
T35 construct: purchased Reaction Biology Corp
Procedure: as §1

[36] = biological target: T36, Src (Homo sapiens, UniProt P12931)
T36 construct: purchased Reaction Biology Corp
Procedure: as §1

[37] = biological target: T37, TAOK3 (Homo sapiens, UniProt Q9H2K8)
T37 construct: purchased Reaction Biology Corp
Procedure: as §1

[38] = biological target: T38, TESK2 (Homo sapiens, UniProt Q96S53)
T38 construct: purchased Reaction Biology Corp
Procedure: as §1

[39] = biological target: T39, TNK1 (Homo sapiens, UniProt Q13470)
T39 construct: purchased Reaction Biology Corp
Procedure: as §1

[40] = biological target: T40, TSSK6 (Homo sapiens, UniProt Q9BXA6)
T40 construct: purchased Reaction Biology Corp
Procedure: as §1

[41] = biological target: T41, TTBK2 (Homo sapiens, UniProt Q6IQ55)
T41 construct: purchased Reaction Biology Corp
Procedure: as §1

[42] = biological target: T42, YSK4 (Homo sapiens, UniProt Q56UN5)
T42 construct: purchased Reaction Biology Corp
Procedure: as §1

T7 sequence (P50750 whole entry): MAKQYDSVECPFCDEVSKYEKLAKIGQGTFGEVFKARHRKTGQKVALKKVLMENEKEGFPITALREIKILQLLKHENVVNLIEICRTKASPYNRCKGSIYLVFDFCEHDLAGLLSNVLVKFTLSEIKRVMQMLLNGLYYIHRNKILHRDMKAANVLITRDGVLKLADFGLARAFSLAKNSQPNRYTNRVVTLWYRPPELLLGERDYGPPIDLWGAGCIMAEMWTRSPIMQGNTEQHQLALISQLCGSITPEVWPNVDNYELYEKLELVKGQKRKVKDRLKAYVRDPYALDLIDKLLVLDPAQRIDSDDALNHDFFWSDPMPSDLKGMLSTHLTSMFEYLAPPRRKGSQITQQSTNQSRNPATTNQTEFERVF
T7 sequence (O60563 whole entry partner): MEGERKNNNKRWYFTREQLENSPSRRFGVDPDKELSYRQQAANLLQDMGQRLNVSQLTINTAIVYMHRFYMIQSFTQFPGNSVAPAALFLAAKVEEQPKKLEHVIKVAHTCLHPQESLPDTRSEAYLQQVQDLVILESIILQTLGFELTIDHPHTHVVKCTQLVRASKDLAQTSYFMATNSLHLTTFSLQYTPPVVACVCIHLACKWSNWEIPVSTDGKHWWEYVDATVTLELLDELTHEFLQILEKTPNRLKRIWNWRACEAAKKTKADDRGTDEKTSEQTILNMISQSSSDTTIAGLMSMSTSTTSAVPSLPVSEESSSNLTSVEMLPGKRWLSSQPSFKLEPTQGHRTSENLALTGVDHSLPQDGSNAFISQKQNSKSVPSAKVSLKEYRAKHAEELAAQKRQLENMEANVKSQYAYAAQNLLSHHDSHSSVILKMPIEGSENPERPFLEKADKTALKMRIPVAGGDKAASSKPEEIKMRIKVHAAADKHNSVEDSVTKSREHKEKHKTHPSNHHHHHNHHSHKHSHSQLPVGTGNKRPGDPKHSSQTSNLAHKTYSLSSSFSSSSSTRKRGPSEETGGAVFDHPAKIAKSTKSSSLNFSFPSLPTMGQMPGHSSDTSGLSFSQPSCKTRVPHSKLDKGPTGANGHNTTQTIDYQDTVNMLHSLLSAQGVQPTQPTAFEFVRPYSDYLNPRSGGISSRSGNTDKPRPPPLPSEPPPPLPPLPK
T4 sequence (P06493 whole entry): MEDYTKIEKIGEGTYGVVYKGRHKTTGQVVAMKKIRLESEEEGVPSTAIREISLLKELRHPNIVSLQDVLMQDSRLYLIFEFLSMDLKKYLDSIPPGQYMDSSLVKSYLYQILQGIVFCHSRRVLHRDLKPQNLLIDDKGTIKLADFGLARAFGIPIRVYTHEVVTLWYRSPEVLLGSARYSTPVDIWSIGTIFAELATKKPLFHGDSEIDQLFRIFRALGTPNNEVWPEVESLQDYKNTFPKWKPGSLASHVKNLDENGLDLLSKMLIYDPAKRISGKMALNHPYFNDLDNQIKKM
T4 sequence (P14635 whole entry partner): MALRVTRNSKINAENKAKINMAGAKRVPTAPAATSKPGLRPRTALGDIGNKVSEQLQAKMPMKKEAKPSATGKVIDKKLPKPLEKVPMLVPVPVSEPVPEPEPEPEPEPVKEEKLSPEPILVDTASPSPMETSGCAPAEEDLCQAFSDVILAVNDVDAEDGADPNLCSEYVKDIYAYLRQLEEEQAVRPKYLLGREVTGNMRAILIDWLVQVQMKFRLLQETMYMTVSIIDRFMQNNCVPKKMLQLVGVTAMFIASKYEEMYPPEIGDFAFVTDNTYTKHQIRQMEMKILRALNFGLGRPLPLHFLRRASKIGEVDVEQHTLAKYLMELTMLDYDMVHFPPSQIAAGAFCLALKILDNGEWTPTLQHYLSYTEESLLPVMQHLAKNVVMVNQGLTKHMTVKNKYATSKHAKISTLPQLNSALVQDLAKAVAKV
T5 sequence (Q00526 whole entry): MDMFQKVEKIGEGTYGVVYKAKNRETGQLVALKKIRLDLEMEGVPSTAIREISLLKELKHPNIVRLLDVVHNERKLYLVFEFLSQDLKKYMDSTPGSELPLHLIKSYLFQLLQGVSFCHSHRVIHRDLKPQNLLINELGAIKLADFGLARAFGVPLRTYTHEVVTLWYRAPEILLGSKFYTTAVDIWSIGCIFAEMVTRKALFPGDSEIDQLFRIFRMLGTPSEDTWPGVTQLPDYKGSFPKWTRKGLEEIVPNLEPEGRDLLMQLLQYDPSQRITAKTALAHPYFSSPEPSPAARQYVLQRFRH
T5 sequence (P24864 whole entry partner): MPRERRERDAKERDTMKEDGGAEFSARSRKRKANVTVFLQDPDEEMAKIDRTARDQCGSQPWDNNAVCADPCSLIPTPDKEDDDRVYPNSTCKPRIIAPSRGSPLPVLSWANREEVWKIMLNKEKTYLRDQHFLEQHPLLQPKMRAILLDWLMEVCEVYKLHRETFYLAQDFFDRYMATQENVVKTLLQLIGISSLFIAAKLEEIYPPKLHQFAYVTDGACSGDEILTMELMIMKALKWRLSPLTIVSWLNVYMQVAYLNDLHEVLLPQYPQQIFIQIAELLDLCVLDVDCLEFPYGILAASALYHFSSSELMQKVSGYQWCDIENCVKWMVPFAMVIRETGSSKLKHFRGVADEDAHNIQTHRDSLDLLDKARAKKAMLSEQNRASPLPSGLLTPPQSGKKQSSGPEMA
T23 sequence (O95747 whole entry): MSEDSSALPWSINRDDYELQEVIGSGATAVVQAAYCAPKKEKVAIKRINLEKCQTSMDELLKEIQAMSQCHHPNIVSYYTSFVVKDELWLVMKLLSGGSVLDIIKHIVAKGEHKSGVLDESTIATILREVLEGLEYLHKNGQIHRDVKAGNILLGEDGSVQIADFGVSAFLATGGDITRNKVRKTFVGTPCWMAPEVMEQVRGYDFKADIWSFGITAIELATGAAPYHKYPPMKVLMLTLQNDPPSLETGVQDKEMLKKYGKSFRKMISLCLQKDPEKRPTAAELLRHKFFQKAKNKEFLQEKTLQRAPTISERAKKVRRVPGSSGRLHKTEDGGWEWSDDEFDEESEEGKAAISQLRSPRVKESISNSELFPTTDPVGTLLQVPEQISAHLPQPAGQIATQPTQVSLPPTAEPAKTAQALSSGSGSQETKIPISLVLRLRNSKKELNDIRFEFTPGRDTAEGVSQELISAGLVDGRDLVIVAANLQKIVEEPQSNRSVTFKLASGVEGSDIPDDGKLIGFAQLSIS
T36 sequence (P12931 whole entry): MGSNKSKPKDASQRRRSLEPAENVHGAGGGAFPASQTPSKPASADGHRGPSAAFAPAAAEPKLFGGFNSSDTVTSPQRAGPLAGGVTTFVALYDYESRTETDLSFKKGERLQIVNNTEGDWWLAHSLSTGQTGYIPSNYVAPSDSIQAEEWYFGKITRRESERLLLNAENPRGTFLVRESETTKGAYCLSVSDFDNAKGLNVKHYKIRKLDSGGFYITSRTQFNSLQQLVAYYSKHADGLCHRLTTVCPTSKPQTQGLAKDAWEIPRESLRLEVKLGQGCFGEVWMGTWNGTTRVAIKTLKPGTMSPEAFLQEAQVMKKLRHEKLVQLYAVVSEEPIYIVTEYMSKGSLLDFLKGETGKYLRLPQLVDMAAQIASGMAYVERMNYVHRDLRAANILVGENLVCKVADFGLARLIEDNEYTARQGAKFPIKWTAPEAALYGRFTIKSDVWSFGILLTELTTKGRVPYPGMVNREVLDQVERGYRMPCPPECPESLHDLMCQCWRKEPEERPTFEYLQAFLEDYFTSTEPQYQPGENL
T20 sequence (Q02779 whole entry): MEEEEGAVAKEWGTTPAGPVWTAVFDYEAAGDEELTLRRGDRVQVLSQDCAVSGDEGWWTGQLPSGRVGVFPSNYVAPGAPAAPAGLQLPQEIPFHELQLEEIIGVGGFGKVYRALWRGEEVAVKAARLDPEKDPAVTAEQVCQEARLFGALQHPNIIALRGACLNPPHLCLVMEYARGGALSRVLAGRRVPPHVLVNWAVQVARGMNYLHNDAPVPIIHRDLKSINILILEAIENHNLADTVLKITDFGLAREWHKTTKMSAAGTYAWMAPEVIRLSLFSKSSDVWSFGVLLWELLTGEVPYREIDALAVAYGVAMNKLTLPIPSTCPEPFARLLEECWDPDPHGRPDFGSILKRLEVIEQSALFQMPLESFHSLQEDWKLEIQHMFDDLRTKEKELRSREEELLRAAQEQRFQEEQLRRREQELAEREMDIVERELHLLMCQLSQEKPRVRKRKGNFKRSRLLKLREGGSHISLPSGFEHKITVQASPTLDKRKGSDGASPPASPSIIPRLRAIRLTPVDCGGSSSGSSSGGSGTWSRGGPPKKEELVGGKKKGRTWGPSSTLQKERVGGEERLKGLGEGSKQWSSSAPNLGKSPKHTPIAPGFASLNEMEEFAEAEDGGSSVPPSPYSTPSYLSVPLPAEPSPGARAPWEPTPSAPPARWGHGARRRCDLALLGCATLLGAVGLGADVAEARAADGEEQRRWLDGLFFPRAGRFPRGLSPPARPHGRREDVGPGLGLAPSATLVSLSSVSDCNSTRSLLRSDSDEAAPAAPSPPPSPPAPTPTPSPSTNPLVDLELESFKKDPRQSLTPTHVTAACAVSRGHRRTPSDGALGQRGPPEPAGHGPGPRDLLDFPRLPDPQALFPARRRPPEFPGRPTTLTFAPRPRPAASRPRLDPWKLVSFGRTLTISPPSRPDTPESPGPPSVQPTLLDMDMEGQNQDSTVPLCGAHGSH
T34 sequence (O75716 whole entry): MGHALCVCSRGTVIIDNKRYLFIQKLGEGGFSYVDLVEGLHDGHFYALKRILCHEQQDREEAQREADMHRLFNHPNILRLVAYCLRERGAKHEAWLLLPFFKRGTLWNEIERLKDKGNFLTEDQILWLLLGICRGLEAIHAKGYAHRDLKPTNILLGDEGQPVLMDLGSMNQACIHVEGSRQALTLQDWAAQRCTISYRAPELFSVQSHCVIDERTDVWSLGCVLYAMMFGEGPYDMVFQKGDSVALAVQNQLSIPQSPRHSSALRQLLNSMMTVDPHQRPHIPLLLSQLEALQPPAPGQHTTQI

SMILES: CCn1cnc2c(NCc3ccc(-c4ccccn4)nc3)nc(-c3ccc(N)nc3)nc21 [Compound 30d, N-([2,2′-Bipyridin]-5-ylmethyl)-2-(6-aminopyridin-3-yl)-9-ethyl-9H-purin-6-amine]
- remaining activity at 10 µM [1]: 13.7%
- remaining activity at 10 µM [2]: 132%
- remaining activity at 10 µM [3]: 79.5%
- inhibition at 10 µM [4]: > 95%
- remaining activity at 10 µM [4]: 2.1%
- inhibition at 10 µM [5]: > 95%
- remaining activity at 10 µM [5]: 1%
- remaining activity at 10 µM [6]: 24.2%
- inhibition at 10 µM [7]: > 95%
- remaining activity at 10 µM [7]: 0.8%
- remaining activity at 10 µM [8]: 53.1%
- remaining activity at 10 µM [9]: 97.7%
- remaining activity at 10 µM [10]: 65.4%
- remaining activity at 10 µM [11]: 33.7%
- remaining activity at 10 µM [12]: 93%
- remaining activity at 10 µM [13]: 71.5%
- remaining activity at 10 µM [14]: 80.1%
- remaining activity at 10 µM [15]: 88.4%
- remaining activity at 10 µM [16]: 102%
- remaining activity at 10 µM [17]: 81.5%
- remaining activity at 10 µM [18]: 73.5%
- remaining activity at 10 µM [19]: 96.4%
- remaining activity at 10 µM [20]: 62.3%
- remaining activity at 10 µM [21]: 10.2%
- remaining activity at 10 µM [22]: 60%
- remaining activity at 10 µM [23]: 50.8%
- remaining activity at 10 µM [24]: 84.2%
- remaining activity at 10 µM [25]: 118%
- remaining activity at 10 µM [26]: 29.1%
- remaining activity at 10 µM [27]: 14%
- remaining activity at 10 µM [28]: 86.7%
- remaining activity at 10 µM [29]: 68.3%
- remaining activity at 10 µM [30]: 47.5%
- remaining activity at 10 µM [31]: 97.8%
- remaining activity at 10 µM [32]: 92.3%
- remaining activity at 10 µM [33]: 115%
- remaining activity at 10 µM [34]: 35.9%
- remaining activity at 10 µM [35]: 33.5%
- remaining activity at 10 µM [36]: 60.1%
- remaining activity at 10 µM [37]: 23.1%
- remaining activity at 10 µM [38]: 83.7%
- remaining activity at 10 µM [39]: 91.3%
- remaining activity at 10 µM [40]: 86.9%
- remaining activity at 10 µM [41]: 97.3%
- remaining activity at 10 µM [42]: 96.8%
